The text below walks through data of BindingDB's records for patent US20230391786 (Eli Lilly, 2023).

For this experiment, the target named is Cyclic GMP-AMP synthase (Homo sapiens, UniProt Q8N884). Nature of the experiment: In Vitro Inhibition Assay. How it is done:
In vitro inhibition assay of cGAS activity: Add a 5 μL mixture containing 10 mM Tris-Cl pH 7.5, 50 mM NaCl, 5 mM MgCl2, 1 mM DTT, 0.01% Triton X-100, 60 nM 75-bp dsDNA, […], 50 μM GTP, 10 nM of recombinant human cGAS, and serial dilutions of a test compound in DMSO to a 384-well plate and incubate at room temperature for 3 hours. Quench the reaction by the addition of 100 μL of stop solution containing 0.1% formic acid and 0.1 μM internal standard (3′3′-difluoro cGAMP). Measure the amount of cGAMP produced by RapidFire 365 mass spectrometry and evaluate inhibitory effect of a compound by plotting percent specific inhibition of cGAMP production against log concentration of the test compound.

Cyclic GMP-AMP synthase, sequence (Q8N884 whole entry): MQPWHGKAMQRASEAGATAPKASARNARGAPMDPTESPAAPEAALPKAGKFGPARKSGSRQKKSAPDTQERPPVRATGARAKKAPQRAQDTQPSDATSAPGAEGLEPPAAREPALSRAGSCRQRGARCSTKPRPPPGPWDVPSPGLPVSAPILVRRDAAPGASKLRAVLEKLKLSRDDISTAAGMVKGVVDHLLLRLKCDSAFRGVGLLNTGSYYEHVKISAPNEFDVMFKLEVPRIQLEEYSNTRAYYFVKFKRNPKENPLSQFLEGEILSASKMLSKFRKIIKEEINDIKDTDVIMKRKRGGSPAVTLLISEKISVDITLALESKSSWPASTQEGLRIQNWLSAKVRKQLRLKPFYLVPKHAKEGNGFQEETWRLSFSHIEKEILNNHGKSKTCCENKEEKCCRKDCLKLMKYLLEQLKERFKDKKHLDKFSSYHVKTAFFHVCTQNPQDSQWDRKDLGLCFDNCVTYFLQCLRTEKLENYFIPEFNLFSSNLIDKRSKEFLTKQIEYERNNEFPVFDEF

Consider `NC1CCn2c1c(-c1cn[nH]c1)c1ccc(Cl)c(Cl)c12` (centres undefined) [US20230391786, Example 241], for which the IC50 (in general, the concentration that inhibits the measured activity by half) is 62.5 nM. That is a double-digit nanomolar value. In turn, `O=C(CCn1cncn1)N1CCn2c(c(-c3cn[nH]c3)c3ccc(Cl)c(Cl)c32)C1` [US20230391786, Example 49] showed an IC50 of 83.9 nM. Take `Cn1ncnc1COCC(=O)N1CCn2c(c(-c3cn[nH]c3)c3c(OCC#N)cc(Cl)c(Cl)c32)C1` [US20230391786, Example 181]: the IC50 amounted to 16.5 nM. Against the preceding compound, the IC50 is about 5.1-fold lower. Compound `OCCn1cc(-n2cc(-c3cn[nH]c3)c3ccc(Cl)cc32)nn1` [US20230391786, Example 229] had an IC50 of 96.5 nM.
